Where two headings read alike, the source gives them in different places.

One assay deals with T1, AChE (Electrophorus electricus, UniProt O42275).
T1 construct: obtaining AChE and BChE enzymes from electric eel and equine serum, respectively; from tissue; host or cells: electric eel
Nature of the assay: biochemical. The conditions noted are these: for inhibition at 62.5 µg/mL / inhibition at 125 µg/mL / inhibition at 250 µg/mL / inhibition at 500 µg/mL / inhibition at 1000 µg/mL: read-out: AChE percent enzyme inhibition, Mean ± SEM. As to the method: (§1) Evaluation of anticholinesterase activity of the synthesized compounds was performed according to Ellman’s method and was determined by obtaining AChE and BChE enzymes from electric eel and equine serum, respectively. DMSO was used for the dissolution of test samples (1 mg/mL), which were diluted in phosphate buffer (0.1 M) to concentrations from 1000 to 62.5 µg/mL. Phosphate buffer in 0.1 M, pH 8.0 was used for the dilution of 518 U/mg AChE and 7–16 U/mg BChE to obtain final concentrations of 0.03 U/mL and 0.01 U/mL for AChE and BChE, respectively. Substrate solutions of 0.5 mM ATchI, 0.2273 mM DTNB and 0.5 mM BTchI in distilled water were made and maintained separately in Eppendorf tubes at 8 °C in a refrigerator. The assay was started by adding 5 µL enzyme solution to a cuvette, then adding 205 µL test sample followed by 5 µL DTNB reagent. A 5 µL volume of substrate solution was added, and the solution mixture was maintained for 15 min in water bath at 30 °C. A spectrophotometer was used to measure absorbance at 412 nm at 30 °C with a reaction time of 4 min. […] The following formula was used for calculation of % enzyme inhibition.

The target in a further assay is T2, BChE (Equus caballus, UniProt P81908).
T2 construct: obtaining AChE and BChE enzymes from electric eel and equine serum, respectively; from tissue; host or cells: equine serum
Nature of the assay: biochemical. The conditions noted are these: for inhibition at 62.5 µg/mL / inhibition at 125 µg/mL / inhibition at 250 µg/mL / inhibition at 500 µg/mL / inhibition at 1000 µg/mL: read-out: BChE percent enzyme inhibition, Mean ± SEM. As to the method: as §1

Assay [1] deals with scopolamine-induced amnesia in mice. Nature of the assay: Elevated plus maze (EPM), scopolamine-induced amnesia. The format is in vivo, Balb/C mice. The conditions noted are these: then scopolamine 1 mg/kg i.p., mean ± SEM, n = 6. As to the method:
(§2) Balb/C mice iwth a weight of (17–23 gm) were procured from the NIH (National Institute of Health), Islamabad, which were kept for breeding under favorable conditions in the animal house of the Pharmacy Department, Shaheed Benazir Bhutto University Sheringal Dir (Upper). Light/dark cycle of about 12 h each was maintained, with relative humidity of 50–55% at 22–25 °C. This work was conducted with approval from the Departmental Ethical Committee (SBBU/IEC-20-02) of the Scientific Procedure Issue-I of the University of Malakand in compliance with provision of the 2008 Animal Byelaws.
(§3) Mice were divided into thirteen groups with 6 mice in each group.
(§4) Group I. Normal control group (vehicle treated) received 10 mL/kg (i.p.) normal saline.
(§5) Group IV–XIII. Sample (curcumin analog)-treated groups. Synthesized curcumin analogs were administered in doses of 7.5 mg/kg and 15 mg/kg (p.o.), respectively.
(§6) The groups were kept for 7 days at various treatments doses.
The EPM consisted of two open arms and two closed arms with dimensions of 16 cm × 5 cm × 12 cm, and was made from two poly acrylic sheets and designed as a plus sign with a central platform with dimensions of 5 cm × 5 cm, which was elevated 25 cm from the floor on a wooden stand. Mice were placed in the open arm in such a position that their direction was facing away from the central platform; then, the transfer latency time (TLT) was noted when the mice moved to the closed arm with its four legs from the open arm and then returned to their home cage. […] The following formula was used for calculation of inflexion ratio (IR). IR=L0−L1/L0 where L1 = initial transfer latency (s) and L0 = retention transfer latency (s).

Assay [2] deals with scopolamine-induced memory impairment in mice. The assay can be described thus: Novel object recognition test (NORT), scopolamine-induced memory impairment. The class given is in vivo, Balb/C mice. The conditions noted are these: for % DI in exploring the novel object versus scopolamine-treated group (in words): long-term memory, h compounds 7.5 and 15 mg/kg, donepezil 2 mg/kg; for % DI versus scopolamine-treated group (in words): short-term memory, 7.5 and 15 mg/kg p.o. As to the method:
as §2, §3, §4, §5, §6
The synthesized curcumin analogs were tested for possible memory enhancement potential by using novel object recognition test apparatus, which was designed using plexi glass with dimension of 40 cm × 40 cm × 30 cm. The mice, after acclimatization period, were allowed to move for 2–3 min one day before the test for habituation. In the two corners of the NORT apparatus, two identical objects were placed on the test day in the sample phase (T1), and the object exploration time was recorded. The objects were regarded as being explored when the mice touched the objects or directed their nose toward the object at a distance of less than 2 cm, […], the test phase (T2) was started, in which one of the familiar objects was replaced with a novel (new) object. Mice again freely explored the objects in similar manner to that in T1, and the exploration time for the novel (new) object and the familiar (F) object were noted separately. The DI (discrimination index) was measured using the following formula: DI=N−F/N+F

Assay [3] relates to T3, AChE in the hippocampus region of mouse brain.
T3 construct: from tissue; host or cells: mouse brain hippocampus (supernatant of homogenate)
The format is in vivo. The conditions noted are these: pretreatment, then scopolamine, n = 6. On the procedure: as §6
(§7) The mice were sacrificed immediately after the behavioral study by cervical dislocation to provide quick and painless death to each animal before decapitation. Brain of each animal was excised in phosphate buffer saline (chilled) and incorporated into biochemical biomarker analysis.
(§8) Cholinesterase (AChE and BChE) levels were determined in the excised brain hippocampus using Ellman’s method with slight modification. Supernatant (0.4 mL), 0.1 M/L, pH 8 phosphate buffer (2.6 mL), and 100 µL of DTNB (5,5′-dithiobis-2-nitrobenzoic acid) and were added into cuvette and mixed. Spectrophotometer at 412 nm was run and absorbance was measured several times, then […] acetyl thiocholine iodide/butyrylthiocholine chloride was mixed into the reaction as substrate at an interval of 2 min, and variation in absorbance was noted and the changes in absorbance per min were recorded. The following formula was used for calculation of cholinesterase level: R = 5.74 × 10^−4 × A/CO where ‘R’ is the moles (rate) of substrate hydrolyzed/min/mg of protein, (A) is the change in absorbance/min, and ‘CO’ is concentration (20 mg/mL) of protein.

In assay [4] the test system is T4, BChE in the hippocampus region of mouse brain.
T4 construct: from tissue; host or cells: mouse brain hippocampus (supernatant of homogenate)
The format is in vivo. As to conditions: pretreatment, then scopolamine, n = 6. As to the method:
as §6, §7, §8

T2 sequence (P81908 whole entry): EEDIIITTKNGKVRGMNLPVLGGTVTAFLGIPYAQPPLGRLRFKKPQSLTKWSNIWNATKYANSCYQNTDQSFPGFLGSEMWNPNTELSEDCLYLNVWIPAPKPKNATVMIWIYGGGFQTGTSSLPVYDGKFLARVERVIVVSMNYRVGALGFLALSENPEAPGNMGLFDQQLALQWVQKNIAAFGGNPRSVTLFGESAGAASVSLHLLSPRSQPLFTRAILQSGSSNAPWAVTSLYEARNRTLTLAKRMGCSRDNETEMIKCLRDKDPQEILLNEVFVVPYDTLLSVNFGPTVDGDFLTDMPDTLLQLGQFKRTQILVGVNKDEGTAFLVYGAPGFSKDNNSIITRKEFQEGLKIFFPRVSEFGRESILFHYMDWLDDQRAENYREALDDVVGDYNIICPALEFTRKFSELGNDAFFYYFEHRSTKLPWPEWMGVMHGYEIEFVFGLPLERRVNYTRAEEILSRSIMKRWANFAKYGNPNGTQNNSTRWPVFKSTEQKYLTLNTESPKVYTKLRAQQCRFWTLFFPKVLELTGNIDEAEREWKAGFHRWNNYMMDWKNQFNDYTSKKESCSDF
T1 sequence (O42275 24-633): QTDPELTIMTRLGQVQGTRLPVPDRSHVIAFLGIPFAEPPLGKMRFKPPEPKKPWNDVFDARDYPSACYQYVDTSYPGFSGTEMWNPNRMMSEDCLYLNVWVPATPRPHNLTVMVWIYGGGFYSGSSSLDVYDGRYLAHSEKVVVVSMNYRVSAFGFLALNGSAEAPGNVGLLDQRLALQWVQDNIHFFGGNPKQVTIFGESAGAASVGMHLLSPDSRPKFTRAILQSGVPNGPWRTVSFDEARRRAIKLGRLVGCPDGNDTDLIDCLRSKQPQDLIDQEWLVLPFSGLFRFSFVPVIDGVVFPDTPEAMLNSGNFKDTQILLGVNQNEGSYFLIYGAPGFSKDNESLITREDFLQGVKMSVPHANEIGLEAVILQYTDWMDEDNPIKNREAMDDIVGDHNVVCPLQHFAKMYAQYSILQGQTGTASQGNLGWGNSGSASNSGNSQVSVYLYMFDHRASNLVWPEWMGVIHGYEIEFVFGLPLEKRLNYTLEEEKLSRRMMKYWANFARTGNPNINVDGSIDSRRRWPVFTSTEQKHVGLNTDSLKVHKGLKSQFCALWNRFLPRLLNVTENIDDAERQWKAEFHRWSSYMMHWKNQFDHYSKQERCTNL

The term inhibition denotes the relative decrease from the control value, in per cent. The term IC50 denotes the point on the concentration scale where inhibition reaches its midpoint. In the case of `CN(C)c1ccc(/C=C/C(=O)/C=C/c2ccc(N(C)C)cc2)cc1` [h4, (1E,4E)-1,5-bis(4-(Dimethylamino)phenyl)penta-1,4-dien-3-one], the inhibition at 62.5 µg/mL was 31.41 ± 0.13% on AChE (62.5 µg/mL) and 27.16 ± 0.11% at BChE (62.5 µg/mL). In addition, the inhibition at 125 µg/mL at AChE (125 µg/mL) is 39.45 ± 0.04%; on BChE (125 µg/mL) it was 35.33 ± 0.19%. Besides, the inhibition at 250 µg/mL at AChE (250 µg/mL) was 46.32 ± 0.15%; at BChE (250 µg/mL) it was 42.62 ± 0.12%. For the same compound, the inhibition at 500 µg/mL at AChE (500 µg/mL) was 58.16 ± 0.11%; at BChE (500 µg/mL) it was 49.51 ± 0.16%. Moreover, the inhibition at 1000 µg/mL was 63.51 ± 0.17% at AChE (1000 µg/mL) and 56.32 ± 0.18% on BChE (1000 µg/mL). The IC50 at AChE (Ellman's method, 1000 to 62.5 μg/mL, n = 3, read-out: AChEI (IC50) (converted)) was 920 µM; at BChE (Ellman's method, 1000 to 62.5 μg/mL, n = 3, read-out: BChEI (IC50) (converted)), 1600 µM. The “Retention (transfer latency time, TLT)” value amounted to 35.71 ± 1.13 s in assay [1] (7.5 mg/kg p.o. for 7 days) and 30.42 ± 1.24 s in assay [1] (15 mg/kg p.o. for 7 days). Moreover, in assay [2], the “% DI in exploring the novel object versus scopolamine-treated group (in words)” value is given as “no promising results”. Moreover, in assay [2], the “% DI versus scopolamine-treated group (in words)” value was “comparable values”. Besides, the “Reversal of scopolamine-increased hippocampus AChE level (in words)” value in assay [3] is “no prominent”. Moreover, in assay [4], the “Reversal of scopolamine-increased hippocampus BChE level (in words)” value is “no promising results”.

Regarding `O=C(/C=C/c1ccc([N+](=O)[O-])cc1)/C=C/c1ccc([N+](=O)[O-])cc1` [h5, (1E,4E)-1,5-bis(4-Nitrophenyl)penta-1,4-dien-3-one], on AChE, half-maximal inhibition (IC50) was put at 1950 µM, the inhibition at 62.5 µg/mL is 26.45 ± 0.18%, the inhibition at 125 µg/mL amounted to 35.51 ± 0.06% and the inhibition at 250 µg/mL came out at 41.27 ± 0.04%. In addition, on AChE, the inhibition at 500 µg/mL came out at 47.33 ± 0.16% and the inhibition at 1000 µg/mL was found to be 58.41 ± 0.13%. Besides, at BChE, the midpoint of inhibition, the IC50, lay at 3050 µM; the inhibition at 62.5 µg/mL turned out to be 16.2 ± 0.83%; the inhibition at 125 µg/mL came out at 20.3 ± 0.31%; the inhibition at 250 µg/mL was 32.73 ± 0.01%. Also, at BChE, the inhibition at 500 µg/mL was 43.51 ± 0.13% and the inhibition at 1000 µg/mL was determined as 51.82 ± 0.16%. For the same compound, the “Retention (transfer latency time, TLT)” value in assay [1] (7.5 mg/kg p.o. for 7 days) was 34.71 ± 1.37 s. The “Retention (transfer latency time, TLT)” value in assay [1] (15 mg/kg p.o. for 7 days) stood at 31.51 ± 1.54 s. In assay [2], the “% DI in exploring the novel object versus scopolamine-treated group (in words)” value is given as “no promising results” and the “% DI versus scopolamine-treated group (in words)” value is given as “no promising results”. Besides, the “Reversal of scopolamine-increased hippocampus AChE level (in words)” value in assay [3] is listed as “no prominent”. Moreover, the “Reversal of scopolamine-increased hippocampus BChE level (in words)” value in assay [4] was “no promising results”.

The record behind these values is paper PMC8659060, “Neuroprotective Potential of Synthetic Mono-Carbonyl Curcumin Analogs Assessed by Molecular Docking Studies” (Molecules, 2021).
